From the METLIN SMRT retention time set (Domingo-Almenara et al. 2019)

Test: gradient 5% acetonitrile 3 min, to 50% in 2 min, to 85% in 15 min, held 3 min, 100 µL/min
Conditions: column: Zorbax Extend-C18 2.1 x 50 mm; eluents: water / acetonitrile, 0.1% formic acid
How it was run: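 Standards, all pure, were combined into mixtures of ~100 molecules and run at 100 μL/min on a Zorbax Extend-C18 column (2.1 × 50 mm, 1.8 μm) with water and acetonitrile, each containing 0.1% formic acid. A coupled quadrupole time-of-flight mass spectrometer operated in positive and negative ionization mode. Retention time values come from computationally picked adduct peaks, each inspected manually.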

Row | SMILES | RP-LC retention time [s]
1 | O=C(Nc1ccc2c(c1)OCCO2)C1(CCO)CCN(c2ncccn2)C1 (stereo not given) | 606
2 | Cc1ccc2nc(-c3cccc(S(=O)(=O)N4CCOCC4)c3)cn2c1 | 605
3 | CC(=O)N1C[C@@H]2CCCN3CCC[C@@H]([C@H]23)[C@H]1CCCC(=O)NCCN(C)C1CCCCC1 | 538
4 | Cc1nnc(-c2nnc(NC3CCCCCC3)c3ccccc23)o1 | 766
5 | COc1cccc(Nc2cc(C)nc3ccnn23)c1 | 610
6 | O=C(Nc1c(C(=O)N2CCN(c3ccccn3)CC2)oc2ccccc12)c1ccc([N+](=O)[O-])cc1 | 757
7 | Cn1cnc(S(=O)(=O)N2CCC(C(=O)Nc3ccccc3)CC2)c1 | 675
8 | COC(=O)CNC(=O)NCCn1c(-c2ccccc2)nc2cccnc21 | 591
9 | Cc1nc2cccnc2n1C1CCN(C(=O)Nc2ccccc2Br)CC1 | 637
10 | O=C(c1cccn2c(=O)c3c4c(sc3nc12)CCCC4)N1CCN(c2ccccn2)CC1 | 656
11 | CCn1ncn2cc(S(=O)(=O)Nc3ccc(F)cc3)cc2c1=O | 848
12 | O=C(NC1CCN(c2cc(-c3cccs3)[nH]n2)CC1)c1ccc(F)cc1F | 769
13 | Cc1ccc(-c2ncccc2CNS(=O)(=O)c2ccc(F)c(C)c2)cc1 | 743
14 | COc1ccc(NC(=O)C2CCCN2S(=O)(=O)c2ccc3c(c2)CCCC(=O)N3)cc1OC (stereo not given) | 688
15 | Cc1cccc(N2CCN(Cc3nc(-c4ccc(N5CCC(C)CC5)nc4)no3)CC2)c1C | 1280
16 | O=C(Nc1ccc(N2CCOCC2)cc1)C1CCCN(c2nccnc2Sc2ccccc2)C1 (stereo not given) | 945
17 | Cc1sc2ncn3c(=O)n(CC(=O)N4CCc5ccccc5C4)nc3c2c1C | 894
18 | O=C1C(N2CCN(S(=O)(=O)c3ccccc3)CC2)CCN1CCc1ccccc1 (stereo not given) | 642
19 | O=C(Cc1cn(Cc2ccc(Cl)cc2)c2ccccc12)NCc1ccccn1 | 700
20 | COC(=O)c1ccc2c(=O)n(-c3cccc(OC)c3)c(N3CCN(c4ccccn4)CC3)nc2c1 | 705
21 | CC1(C)CC(=O)c2cn(-c3ccc(Cl)cc3)c(=O)c(C(=O)N3CCN(c4ccccn4)CC3)c2C1 | 650
22 | O=C(N[C@H]1C[C@@H]2C[C@H]1N(C(=O)c1ccco1)C2)c1ccccc1 | 671

Continued, values first:

Row | RP-LC retention time [s] | SMILES
23 | 724 | O=C(NCC(c1cccnc1)c1c[nH]c2ccccc12)Nc1ccc(Br)cc1 (stereo not given)
24 | 886 | O=C(Nc1ccc(N2CCN(C3CCCCC3)C2=O)nc1)c1ccc(F)c(F)c1
25 | 912 | CCCCn1cc(S(=O)(=O)Nc2cccc(OC)c2)c2cccnc21
26 | 642 | CC(=O)c1ccc(NC(=O)COc2cc(C)nc(N3CCCCCC3)n2)cc1
27 | 752 | CCCCN(CC)C(=O)C1CCCN(c2nccc(C)n2)C1 (stereo not given)
28 | 922 | Cc1ccc(CNC(=O)CN2C(=O)C3CCCCN3c3ccc(S(=O)(=O)N(C)C)cc32)cc1 (stereo not given)
29 | 628 | O=C(Cn1nc(-c2ccco2)ccc1=O)NCc1ccco1
30 | 806 | COc1cccc(N2CCN(c3ccnc(SCC(=O)Nc4ccc(F)c(Cl)c4)n3)CC2)c1
31 | 786 | Cc1ccc(-n2cc3c(N4CCCC(C(=O)NCc5ccc(C(F)(F)F)cc5)C4)ncnc3n2)cc1 (stereo not given)
32 | 692 | O=C(NC(Cc1ccccc1)C(=O)N1CCN(c2ccccn2)CC1)c1ccc(Cl)cc1 (stereo not given)
33 | 769 | COc1ccc2[nH]c(C(=O)N[C@@H](C)C(=O)NCCc3c[nH]c4ccccc34)cc2c1OC
34 | 899 | Cc1cc(NC(=O)C2CCCN(c3ccc(=O)n(-c4ccc(F)cc4)n3)C2)ccc1Br (stereo not given)
35 | 618 | CCOc1ccc(-c2[nH]ncc2CN2CCn3c(nn(C)c3=O)C2)cc1
